Test results from patent publication US6060468A, “N-substituted azaheterocyclic compounds” (Novo Nordisk A/S, priority 1996, dated 2000).

Test system: histamine induced paw oedema
Assay: Histamine induced paw oedema (rat)
Assay type: in vivo, male Sprague-Dawley rats
Conditions: 1.0 mg/kg, intraperitoneal, 15 min before anaesthetics; histamine 50 microliter 3 mg/ml in right hind paw; swelling after 20 min
Description: I. Histamine Induced Paw Oedema The rat histamine paw oedema test was performed essentially as described by Amann et al. (Europ. J. Pharmacol. 279, 227-231, 1995). In brief 250-300 g male Sprague-Dawley rats were anaesthetized with pentobarbital sodium, and placed on a 32 degree (Celsius) heated table. Ten minutes later histamine (50 micoliter, 3 mg/ml) was injected in the right hind paw and 20 minutes hereafter the paw swelling was determined by water plethysmography (Ugo Basile). Test compounds were administered intraperitoneally at 15 minutes before the anaesthetics. Values for inhibition of histamine induced oedema response for some representative compounds are recorded in table 1.

Row | SMILES | % Oedema inhibition (inhibition of histamine induced oedema response)
1 | O=C(O)[C@@H]1CCCN(CCOC2Cc3ccccc3Sc3ccccc32)C1 (stereo partly drawn) [Example 1, 1-(2-(10,11-Dihydrodibenzo[b,f]thiepin-10-yloxy)-1-ethyl)-(3R)-piperidinecarboxylic acid acetate] | 37%
2 | Cc1ccc2c(c1)CC(OCCN1CCCC(C(=O)O)C1)c1ccccc1S2.O=C(O)C(=O)O (centres unmarked) [Example 5, 1-(2-(2-Methyl-10,11-dihydrodibenzo[b,f]thiepin-10-yloxy)-1-ethyl)-3-piperidinecarboxylic acid hydrogen oxalate] | 49%
